T1: Cytochrome P450 2A6 (Homo sapiens, UniProt P11509)
T1 sequence (P11509 whole entry): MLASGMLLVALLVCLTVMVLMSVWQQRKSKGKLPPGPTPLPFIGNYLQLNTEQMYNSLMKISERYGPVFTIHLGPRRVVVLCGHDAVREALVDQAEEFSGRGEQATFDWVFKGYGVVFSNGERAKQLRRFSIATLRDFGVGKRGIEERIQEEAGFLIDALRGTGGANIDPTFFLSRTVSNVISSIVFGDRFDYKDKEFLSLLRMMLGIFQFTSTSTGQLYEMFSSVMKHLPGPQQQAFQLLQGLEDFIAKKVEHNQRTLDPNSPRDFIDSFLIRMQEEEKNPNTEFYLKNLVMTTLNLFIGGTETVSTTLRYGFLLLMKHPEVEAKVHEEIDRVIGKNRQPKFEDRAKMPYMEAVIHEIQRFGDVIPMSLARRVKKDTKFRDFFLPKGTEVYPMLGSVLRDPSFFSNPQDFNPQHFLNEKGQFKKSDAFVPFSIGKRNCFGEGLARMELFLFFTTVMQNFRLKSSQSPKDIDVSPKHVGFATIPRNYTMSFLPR

T2: Cytochrome P450 2B6 (Homo sapiens, UniProt P20813)
T2 sequence (P20813 whole entry): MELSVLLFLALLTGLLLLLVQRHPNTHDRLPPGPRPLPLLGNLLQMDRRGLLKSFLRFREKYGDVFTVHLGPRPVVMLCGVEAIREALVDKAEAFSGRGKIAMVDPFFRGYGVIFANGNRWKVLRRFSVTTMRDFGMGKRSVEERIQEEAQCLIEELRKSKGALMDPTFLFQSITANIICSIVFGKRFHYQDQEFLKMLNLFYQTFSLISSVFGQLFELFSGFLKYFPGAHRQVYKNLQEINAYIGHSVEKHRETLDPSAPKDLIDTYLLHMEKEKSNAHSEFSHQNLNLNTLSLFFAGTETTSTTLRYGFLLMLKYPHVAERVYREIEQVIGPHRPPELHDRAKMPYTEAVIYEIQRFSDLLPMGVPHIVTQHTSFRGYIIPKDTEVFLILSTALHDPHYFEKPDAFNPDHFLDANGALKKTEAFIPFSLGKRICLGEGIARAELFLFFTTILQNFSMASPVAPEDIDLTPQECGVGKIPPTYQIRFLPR

T3: Cytochrome P450 2C8 (Homo sapiens, UniProt P10632)
T3 sequence (P10632 whole entry): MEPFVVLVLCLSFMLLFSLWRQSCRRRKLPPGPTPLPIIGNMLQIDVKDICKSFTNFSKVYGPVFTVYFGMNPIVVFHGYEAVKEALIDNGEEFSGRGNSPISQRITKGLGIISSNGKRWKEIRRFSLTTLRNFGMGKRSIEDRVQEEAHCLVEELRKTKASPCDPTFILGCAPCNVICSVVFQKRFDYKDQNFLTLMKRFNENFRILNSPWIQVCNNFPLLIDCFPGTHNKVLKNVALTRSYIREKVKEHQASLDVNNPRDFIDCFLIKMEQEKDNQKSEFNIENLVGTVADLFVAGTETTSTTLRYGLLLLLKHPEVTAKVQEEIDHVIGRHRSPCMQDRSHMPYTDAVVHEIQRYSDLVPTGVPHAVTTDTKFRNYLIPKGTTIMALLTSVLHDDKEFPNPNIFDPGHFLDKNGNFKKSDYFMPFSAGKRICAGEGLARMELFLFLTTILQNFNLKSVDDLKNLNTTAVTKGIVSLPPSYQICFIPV

T4: Cytochrome P450 1A2 (Homo sapiens, UniProt P05177)
T4 sequence (P05177 whole entry): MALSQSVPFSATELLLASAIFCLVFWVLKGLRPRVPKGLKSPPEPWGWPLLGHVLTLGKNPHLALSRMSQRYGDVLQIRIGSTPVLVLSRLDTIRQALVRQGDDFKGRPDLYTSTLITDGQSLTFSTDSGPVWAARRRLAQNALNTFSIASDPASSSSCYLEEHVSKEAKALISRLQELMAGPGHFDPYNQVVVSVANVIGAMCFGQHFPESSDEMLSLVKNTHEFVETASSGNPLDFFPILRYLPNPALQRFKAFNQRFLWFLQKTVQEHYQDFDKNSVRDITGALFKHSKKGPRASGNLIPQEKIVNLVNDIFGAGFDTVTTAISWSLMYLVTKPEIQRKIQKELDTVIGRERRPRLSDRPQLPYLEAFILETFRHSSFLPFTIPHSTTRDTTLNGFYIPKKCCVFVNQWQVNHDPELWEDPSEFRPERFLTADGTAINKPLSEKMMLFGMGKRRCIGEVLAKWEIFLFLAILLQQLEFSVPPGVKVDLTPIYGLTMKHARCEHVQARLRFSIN

B1: Cytochrome P450 2C9 (Homo sapiens) (protein)
chain: MDSLVVLVLCLSCLLLLSLWRQSSGRGKLPPGPTPLPVIGNILQIGIKDISKSLTNLSKVYGPVFTLYFGLKPIVVLHGYEAVKEALIDLGEEFSGRGIFPLAERANRGFGIVFSNGKKWKEIRRFSLMTLRNFGMGKRSIEDRVQEEARCLVEELRKTKASPCDPTFILGCAPCNVICSIIFHKRFDYKDQQFLNLMEKLNENIKILSSPWIQICNNFSPIIDYFPGTHNKLLKNVAFMKSYILEKVKEHQESMDMNNPQDFIDCFLMKMEKEKHNQPSEFTIESLENTAVDLFGAGTETTSTTLRYALLLLLKHPEVTAKVQEEIERVIGRNRSPCMQDRSHMPYTDAVVHEVQRYIDLLPTSLPHAVTCDIKFRNYLIPKGTTILISLTSVLHDNKEFPNPEMFDPHHFLDEGGNFKKSKYFMPFSAGKRICVGEALAGMELFLFLTSILQNFNLKSLVDPKNLDTTPVVNGFASVPPFYQLCFIPV

Tests used:
Cytochrome P450 2C9 [1] = target: T5, Cytochrome P450 2C9 (Homo sapiens, UniProt P11712); test: Activity of recombinant human CYP2C9 expressed in microsomes isolated from baculovirus infected insect cell assessed as enzyme-mediated compound formation treated with montelukast at 1 uM after 60 mins by LC-MS analysis; assay type: ADME; details: 1 h
Cytochrome P450 2A6 = target: T1, Cytochrome P450 2A6; test: (§1) Activity of recombinant human CYP2A6 expressed in microsomes isolated from baculovirus infected insect cell assessed as enzyme-mediated 2-(2-((R)-3-((1-(carboxymethyl)cyclopropyl)methylthio)-3-(3-(2-(7-chloroquinolin-2-yl)vinyl)phenyl)propyl)phenyl)-2-hydroxypropanoic acid formation at 1 uM after 30 mins by LC-MS analysis; assay type: ADME; details: 0.5 h
Cytochrome P450 2C9 [2] = target: T5, Cytochrome P450 2C9; test: as §1, with “human CYP2C9” for “human CYP2A6”, “at 0.02” for “at 1”; assay type: ADME; details: 0.5 h
Cytochrome P450 3A5 [3] = target: T6, Cytochrome P450 3A5 (Homo sapiens, UniProt P20815); test: as §1, with “CYP3A5” for “CYP2A6”; assay type: ADME; details: 0.5 h
T6 sequence (P20815 whole entry): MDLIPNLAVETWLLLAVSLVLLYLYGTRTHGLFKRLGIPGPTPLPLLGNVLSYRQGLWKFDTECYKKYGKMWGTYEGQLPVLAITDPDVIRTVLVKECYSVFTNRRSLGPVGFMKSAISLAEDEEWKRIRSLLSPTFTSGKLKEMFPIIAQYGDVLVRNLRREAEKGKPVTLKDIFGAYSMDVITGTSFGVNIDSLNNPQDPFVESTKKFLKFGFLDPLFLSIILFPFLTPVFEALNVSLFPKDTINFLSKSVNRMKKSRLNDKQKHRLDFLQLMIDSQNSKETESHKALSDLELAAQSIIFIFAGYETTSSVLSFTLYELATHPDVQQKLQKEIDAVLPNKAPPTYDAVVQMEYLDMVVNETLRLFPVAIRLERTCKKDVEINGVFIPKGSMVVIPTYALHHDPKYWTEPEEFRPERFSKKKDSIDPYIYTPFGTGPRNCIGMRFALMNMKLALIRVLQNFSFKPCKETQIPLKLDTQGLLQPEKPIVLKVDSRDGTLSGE

Cytochrome P450 2C19 [4] = target: T7, Cytochrome P450 2C19 (Homo sapiens, UniProt P33261); test: as §1, with “CYP2C19” for “CYP2A6”; assay type: ADME; details: 0.5 h
T7 sequence (P33261 whole entry): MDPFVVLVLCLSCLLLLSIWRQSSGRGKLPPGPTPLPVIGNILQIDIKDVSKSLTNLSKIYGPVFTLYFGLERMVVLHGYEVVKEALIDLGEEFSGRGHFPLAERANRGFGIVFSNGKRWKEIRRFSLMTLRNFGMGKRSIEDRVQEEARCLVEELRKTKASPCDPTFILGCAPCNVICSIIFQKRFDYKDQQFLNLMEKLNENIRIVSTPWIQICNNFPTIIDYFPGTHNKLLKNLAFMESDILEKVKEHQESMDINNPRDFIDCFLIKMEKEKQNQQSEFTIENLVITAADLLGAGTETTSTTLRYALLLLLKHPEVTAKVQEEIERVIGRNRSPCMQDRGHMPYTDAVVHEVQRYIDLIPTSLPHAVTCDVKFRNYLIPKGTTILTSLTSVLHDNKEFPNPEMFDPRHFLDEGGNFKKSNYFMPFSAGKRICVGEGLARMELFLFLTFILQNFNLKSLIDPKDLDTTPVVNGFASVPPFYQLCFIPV

Cytochrome P450 2B6 = target: T2, Cytochrome P450 2B6; test: as §1, with “CYP2B6” for “CYP2A6”; assay type: ADME; details: 0.5 h
Cytochrome P450 2C9 [5] = target: T5, Cytochrome P450 2C9; test: Activity of recombinant human CYP2C9 expressed in microsomes isolated from baculovirus infected insect cell assessed as enzyme-mediated compound formation treated with montelukast at 0.02 to 0.1 uM after 12 mins by LC-MS analysis; assay type: ADME; details: 0.2 h
Cytochrome P450 2D6 = Cytochrome P450 2D6 (Homo sapiens, UniProt P10635); test: as §1, with “CYP2D6” for “CYP2A6”; assay type: ADME; details: 0.5 h
Cytochrome P450 2D6, sequence (P10635 whole entry): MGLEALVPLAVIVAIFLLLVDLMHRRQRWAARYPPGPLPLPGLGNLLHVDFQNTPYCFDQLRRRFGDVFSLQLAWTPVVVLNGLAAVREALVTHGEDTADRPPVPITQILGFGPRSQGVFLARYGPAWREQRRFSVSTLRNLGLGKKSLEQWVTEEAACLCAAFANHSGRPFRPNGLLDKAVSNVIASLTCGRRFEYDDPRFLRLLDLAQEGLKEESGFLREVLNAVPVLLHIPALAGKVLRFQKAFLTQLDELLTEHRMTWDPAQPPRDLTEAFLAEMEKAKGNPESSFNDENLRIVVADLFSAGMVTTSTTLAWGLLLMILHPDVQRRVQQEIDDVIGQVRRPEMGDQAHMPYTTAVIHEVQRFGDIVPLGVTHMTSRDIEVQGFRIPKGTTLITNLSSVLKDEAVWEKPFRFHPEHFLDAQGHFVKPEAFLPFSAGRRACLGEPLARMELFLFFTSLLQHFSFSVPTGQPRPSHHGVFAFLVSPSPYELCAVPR

Cytochrome P450 2C8 [6] = target: T3, Cytochrome P450 2C8; test: as §1, with “human CYP2C8” for “human CYP2A6”, “at 0.02” for “at 1”; assay type: ADME; details: 0.5 h
Cytochrome P450 2C8 [7] = target: T3, Cytochrome P450 2C8; test: Activity of recombinant human CYP2C8 expressed in microsomes isolated from baculovirus infected insect cell assessed as enzyme-mediated compound formation treated with montelukast at 0.02 to 0.1 uM after 3 mins by LC-MS analysis; assay type: ADME; details: 0.05 h
Cytochrome P450 2C8 [8] = target: T3, Cytochrome P450 2C8; test: Activity of recombinant human CYP2C8 expressed in microsomes isolated from baculovirus infected insect cell assessed as enzyme-mediated compound formation treated with montelukast at 0.02 to 1 uM after 60 mins by LC-MS analysis; assay type: ADME; details: 1 h
Cytochrome P450 1A2 = target: T4, Cytochrome P450 1A2; test: as §1, with “CYP1A2” for “CYP2A6”; assay type: ADME; details: 0.5 h
Cytochrome P450 2E1 = Cytochrome P450 2E1 (Homo sapiens, UniProt P05181); test: as §1, with “CYP2E1” for “CYP2A6”; assay type: ADME; details: 0.5 h
Cytochrome P450 2E1, sequence (P05181 whole entry): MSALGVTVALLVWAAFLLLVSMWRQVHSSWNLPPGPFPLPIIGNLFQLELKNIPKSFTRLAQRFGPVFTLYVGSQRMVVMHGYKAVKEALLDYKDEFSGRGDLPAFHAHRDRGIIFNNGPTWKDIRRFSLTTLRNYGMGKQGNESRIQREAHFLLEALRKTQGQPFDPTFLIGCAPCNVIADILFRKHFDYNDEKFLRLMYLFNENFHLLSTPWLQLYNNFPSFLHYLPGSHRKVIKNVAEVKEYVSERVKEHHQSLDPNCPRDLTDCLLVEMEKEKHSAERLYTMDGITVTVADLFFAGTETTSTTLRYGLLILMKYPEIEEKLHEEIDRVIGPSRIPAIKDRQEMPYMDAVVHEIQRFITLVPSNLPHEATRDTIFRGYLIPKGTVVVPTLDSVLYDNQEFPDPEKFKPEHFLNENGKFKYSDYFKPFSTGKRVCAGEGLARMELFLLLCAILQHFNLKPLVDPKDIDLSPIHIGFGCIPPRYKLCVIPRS

Liver microsome = test: Drug level in human liver microsomes treated with montelukast at 0.02 to 0.4 uM preincubated for 3 mins followed by beta-NADPH addition by LC-MS analysis; assay type: ADME
Cytochrome P450 3A4 [9] = target: T8, Cytochrome P450 3A4 (Homo sapiens, UniProt P08684); test: as §1, with “human CYP3A4” for “human CYP2A6”, “at 0.02” for “at 1”; assay type: ADME; details: 0.5 h
T8 sequence (P08684 whole entry): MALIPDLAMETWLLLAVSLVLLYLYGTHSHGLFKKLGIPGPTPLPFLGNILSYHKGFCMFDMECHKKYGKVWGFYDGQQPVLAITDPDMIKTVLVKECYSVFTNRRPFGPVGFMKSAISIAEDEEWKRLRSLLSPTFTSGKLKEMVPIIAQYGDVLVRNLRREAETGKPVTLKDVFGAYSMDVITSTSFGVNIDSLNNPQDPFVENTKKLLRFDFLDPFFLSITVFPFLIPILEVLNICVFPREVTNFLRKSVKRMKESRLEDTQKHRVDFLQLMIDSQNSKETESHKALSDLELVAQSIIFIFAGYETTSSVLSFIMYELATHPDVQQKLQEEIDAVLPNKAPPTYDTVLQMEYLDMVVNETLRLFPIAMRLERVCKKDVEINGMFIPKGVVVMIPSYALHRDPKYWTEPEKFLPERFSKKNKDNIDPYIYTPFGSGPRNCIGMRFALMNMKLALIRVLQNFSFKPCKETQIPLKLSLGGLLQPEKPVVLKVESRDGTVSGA

Cytochrome P450 3A4 [10] = target: T8, Cytochrome P450 3A4; test: Activity of recombinant human CYP3A4 expressed in microsomes isolated from baculovirus infected insect cell assessed as enzyme-mediated compound formation treated with montelukast at 1 uM after 60 mins by LC-MS analysis; assay type: ADME; details: 1 h
Cytochrome P450 3A5 [11] = target: T6, Cytochrome P450 3A5; test: Activity of recombinant human CYP3A5 expressed in microsomes isolated from baculovirus infected insect cell assessed as enzyme-mediated compound formation treated with montelukast at 1 uM after 60 mins by LC-MS analysis; assay type: ADME; details: 1 h
Cytochrome P450 2C19 [12] = target: T7, Cytochrome P450 2C19; test: Activity of recombinant human CYP2C19 expressed in microsomes isolated from baculovirus infected insect cell assessed as enzyme-mediated compound formation treated with montelukast at 1 uM after 60 mins by LC-MS analysis; assay type: ADME; details: 1 h
Cytochrome P450 2C8 [13] = target: T3, Cytochrome P450 2C8; test: Activity of recombinant human CYP2C8 expressed in microsomes isolated from baculovirus infected insect cell assessed as enzyme-mediated compound formation treated with 2-(1-(((1R)-1-(3-(2-(7-chloroquinolin-2-yl)vinyl)phenyl)-3-(2-(1,2-dihydroxypropan-2-yl)phenyl)propylthio)methyl)cyclopropyl)acetic acid at 0.02 uM after 30 mins by LC-MS analysis; assay type: ADME; details: 0.5 h
[14] = substrate: CC(C)(O)c1ccccc1CC[C@@H](SCC1(CC(=O)O)CC1)c1cccc(/C=C/c2ccc3ccc(Cl)cc3n2)c1; test: cells, lysate or membranes named

Molecule | Drug metabolism (Cytochrome P450 2C9 [1]) | Drug metabolism (Cytochrome P450 2C8 [7]) | Drug metabolism (Cytochrome P450 2C8 [8]) | Drug metabolism (Liver microsome) | Drug metabolism (Cytochrome P450 3A4 [10]) | Drug metabolism (Cytochrome P450 3A5 [11]) | also measured
CC(O)(CO)c1ccccc1CC[C@@H](SCC1(CC(=O)O)CC1)c1cccc(/C=C/c2ccc3ccc(Cl)cc3n2)c1 (stereo not given in full) | metabolite_detected | metabolite_detected | metabolite_detected | metabolite_detected | – | – | Drug metabolism (Cytochrome P450 2A6): metabolite_not_detected; Drug metabolism (Cytochrome P450 2C9 [2]): metabolite_not_detected; Drug metabolism (Cytochrome P450 3A5 [3]): metabolite_not_detected; Drug metabolism (Cytochrome P450 2C19 [4]): metabolite_not_detected; Drug metabolism (Cytochrome P450 2B6): metabolite_not_detected; Drug metabolism (Cytochrome P450 2C9 [5]): metabolite_detected; Drug metabolism (Cytochrome P450 2D6): metabolite_not_detected; Drug metabolism (Cytochrome P450 2C8 [6]): metabolite_detected; Drug metabolism (Cytochrome P450 1A2): metabolite_not_detected; Drug metabolism (Cytochrome P450 2E1): metabolite_not_detected; Drug metabolism (Cytochrome P450 3A4 [9]): metabolite_not_detected
CC(C)(O)c1cc(O)ccc1CC[C@@H](SCC1(CC(=O)O)CC1)c1cccc(/C=C/c2ccc3ccc(Cl)cc3n2)c1 | metabolite_detected | metabolite_detected | metabolite_detected | metabolite_detected | metabolite_detected | metabolite_detected | Drug metabolism (Cytochrome P450 2C19 [12]): metabolite_detected
CC(C)(O)c1ccccc1C(O)C[C@@H](SCC1(CC(=O)O)CC1)c1cccc(/C=C/c2ccc3ccc(Cl)cc3n2)c1 (stereo not given in full) | – | – | – | metabolite_detected | metabolite_detected | metabolite_detected | –
CC(C)(O)c1ccccc1CC[C@H](c1cccc(/C=C/c2ccc3ccc(Cl)cc3n2)c1)[S+]([O-])CC1(CC(=O)O)CC1 (stereo not given in full) | – | – | – | metabolite_detected | – | – | –
CC(O)(C(=O)O)c1ccccc1CC[C@@H](SCC1(CC(=O)O)CC1)c1cccc(/C=C/c2ccc3ccc(Cl)cc3n2)c1 (stereo not given in full) | – | – | – | metabolite_detected | – | – | Drug metabolism (Cytochrome P450 2C8 [13]): metabolite_detected
B1 | – | – | – | – | – | – | Km [14]: 0.19 µM; Vmax [14]: 1.1e-07 µmol/min

From ChEMBL document CHEMBL3525951, “Reevaluation of the microsomal metabolism of montelukast: major contribution by CYP2C8 at clinically relevant concentrations” (Drug Metab Dispos, 2011)
